One assay relates to MDA-MB-231 xenografts. The experiment in a line: Treatment of MDA-MB-231 xenografts in NCR nu/nu mice. In kind it is in vivo, mouse. To be noted: 1.0 mg/kg (normalized to platinum or TMV content), weekly intravenous bolus. Here is the method: FIGS. 7A-C show treatment of MDA-MB-231 xenografts in an athymic mouse model. […] Tumor volumes were monitored daily, and total volume was normalized to initial tumor size at time of treatment. Each treatment group consists of 5 animals (n=5); *indicates p<0.05.
All animal studies were carried using IACUC-approved procedures. […] The dosage was normalized to platinum or TMV content.

Assay [1] concerns A2780/CP70 (ovarian cancer resistant to cisplatin). Briefly: MTT assay, ovarian cancer cells resistant to cisplatin. In kind it is cell-based, human. To be noted: ovarian cancer cells resistant to cisplatin treatment. In general terms: Formazan colour is commonly taken as a measure of viable cells.
Method: (§1) The assay was performed as per manufacturer's recommendation; a BioTek Synergy HT multidetection microplate reader was used for read-out.
Assay [2] concerns OV81.2 (ovarian cancer, primary patient cells). Briefly: MTT assay, primary patient ovarian cancer cells. The assay is classed as cell-based, human. To be noted: primary patient cells OV81.2.
Method: as §1

As for `N.N.[Cl][Pt][Cl]` [cisplatin], the “tumor growth / treatment effect” value with MDA-MB-231 xenografts is on record as “ineffective”.

For the compound phenanthriplatin, the efficacy versus cisplatin result is recorded as “enhanced efficacy” in assay [1] and “Enhanced efficacy” in assay [2]. Besides, the “tumor growth / treatment effect” value in the assay on MDA-MB-231 xenografts is on record as “ineffective”.
